For five molecules, IC50 results are on record in BindingDB's records for doi:10.1021/jm060460o (University of Michigan, 2006).

pIC50: −log10 of the molar value.

The nature of the assay: Inhibition of growth of human PC3 cell overexpressing Bcl2.

For orientation: pIC50 means the IC50 on a negative log10 scale, so that one unit is a factor of ten. Higher therefore signals a small IC50. The molecule `CC(C)c1cc(C(=O)Nc2ccccc2)c(O)c(O)c1O` [2,3,4-trihydroxy-5-isopropyl-N-phenyl-benzamide] had a pIC50 of 5.15. The result for `CC(C)c1ccccc1Cc1cc(C(=O)Nc2ccc(S(=O)(=O)c3ccccc3C(C)(C)C)cc2)c(O)c(O)c1O` [(N-[(2-tert-butylbenzenesulfonyl)phenyl]-2,3,4-trihydroxy-5-(2-isopropylbenzyl)benzamide] reads 6.70. Next, `O=C(Nc1ccc(S(=O)(=O)c2ccccc2)cc1)c1cc(Cc2ccccc2)c(O)c(O)c1O` [N-(benzenesulfonyl-phenyl)-2,3,4-trihydroxy-5-benzyl-benzamide]: 5.40.

`COc1c(Cc2ccccc2C(C)C)cc(C(=O)Nc2ccc(S(=O)(=O)c3ccccc3C(C)(C)C)cc2)c(OC)c1OC` [N-[(2-Tert-butyl-benzenesulfonyl)-phenyl]-2,3,4-trimethoxyl-5-(2-isopropyl-benzyl)-benzamide] gave a negative-log IC50 (pIC50) below 4.00. The result for `O=C(Nc1ccccc1)c1cc(Cc2ccccc2)c(O)c(O)c1O` [N-phenyl-2,3,4-trihydroxy-5-benzyl-benzamide] reads 5.30.
